Holding throughout (assay type): functional
Assay [1] concerns Pseudomonas aeruginosa. Description: Antibacterial activity against Pseudomonas aeruginosa.
Assay [2] has as its system Escherichia coli. Description: Antibacterial activity against Escherichia coli.
Assay [3] relates to Staphylococcus aureus. Briefly: Antibacterial activity against Staphylococcus aureus.

The structures appear in SMILES notation. Values after ≈ are worked out from the molar mass of the structure shown.

`CCCN1CCN(c2cc3c(cc2F)c(=O)c(C(=O)O)cn3CC)CC1`: the MIC in assay [1] worked out at 4 µg/mL (≈ 11.1 µM); in assay [2] it was 4 µg/mL (≈ 11.1 µM); in assay [3], 16 µg/mL (≈ 44.3 µM).

As to `c1cnc2c(c1)ccc1cccnc12` [PHENANTHROLINE], the MIC in assay [1], in assay [2] and in assay [3] was 32 µg/mL (≈ 178 µM) each time.

On to `CCn1cc(C(=O)O)c(=O)c2cc3c(cc21)OCO3` [OXOLINIC ACID], for which the MIC stood at 16 µg/mL (≈ 61.2 µM) in assay [1], 1 µg/mL (≈ 3.83 µM) in assay [2] and 16 µg/mL (≈ 61.2 µM) in assay [3].

Consider `CCN1CCN(c2cc3c(cc2F)c(=O)c(C(=O)O)cn3C2CC2)CC1` [ENROFLOXACIN], for which the results for the MIC in assay [1], in assay [2] and in assay [3] were 1 µg/mL (≈ 2.78 µM), 1 µg/mL (≈ 2.78 µM) and 8 µg/mL (≈ 22.3 µM), respectively.

For the compound `c1ccc(-c2ccccn2)nc1` [DIPYRIDYL], the minimum inhibitory concentration (MIC) in assay [1], in assay [2] and in assay [3] was 256 µg/mL (≈ 1640 µM) in each case.

By MIC is commonly meant the smallest concentration in the dilution series that meets the test's criterion for growth inhibition. High values mean weaker potency, low ones greater potency.

The values are drawn from ChEMBL document CHEMBL1140749, “Novel copper(II) complex of N-propyl-norfloxacin and 1,10-phenanthroline with enhanced antileukemic and DNA nuclease activities” (2008).
